Source: PubChem BioAssay AID330 (DTP/NCI, 2004)
Values joined by “and” are separate entries in the source; they are usually repeats but may differ in a detail not shown here. Equal values may be shown once. Inconclusive results and toxic doses are left out.

Test system: P388 leukemia ip, CD2F1 mice, survival T/C
Experiment: NCI In Vivo Anticancer Drug Screen. Data for tumor model P388 Leukemia (intraperitoneal) in CD2F1 (CDF1) mice
Conditions: endpoint: median survival time, higher = longer survival
Method in brief: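 Mice carrying the transplanted tumor received test compound or vehicle. Survival was recorded in each group, and the value is the treated-group measurement divided by that of the vehicle-treated control group.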

[1] = dose: 50.0 mg/kg/injection, schedule: Q01DX009 (ip), vehicle: Klucel (hydroxypropylcellulose) (HPC)
[2] = dose: 100.0 mg/kg/injection, schedule: Q01DX009 (ip), vehicle: Klucel (hydroxypropylcellulose) (HPC)
[3] = dose: 25.0 mg/kg/injection, schedule: Q01DX009 (ip), vehicle: saline
[4] = dose: 50.0 mg/kg/injection, schedule: Q01DX009 (ip), vehicle: saline
[5] = dose: 60.0 mg/kg/injection, schedule: Q01DX005 (ip), vehicle: saline with Tween-80
[6] = dose: 120.0 mg/kg/injection, schedule: Q01DX005 (ip), vehicle: saline with Tween-80
[7] = dose: 240.0 mg/kg/injection, schedule: Q01DX005 (ip), vehicle: saline with Tween-80
[8] = dose: 50.0 mg/kg/injection, schedule: Q01DX005 (ip), vehicle: Klucel (hydroxypropylcellulose) (HPC)
[9] = dose: 100.0 mg/kg/injection, schedule: Q01DX005 (ip), vehicle: Klucel (hydroxypropylcellulose) (HPC)
[10] = dose: 200.0 mg/kg/injection, schedule: Q01DX005 (ip), vehicle: Klucel (hydroxypropylcellulose) (HPC)
[11] = dose: 100.0 mg/kg/injection, schedule: Q04DX002 (ip), vehicle: saline with Tween-80
[12] = dose: 100.0 mg/kg/injection, schedule: Q01DX009 (ip), vehicle: saline
[13] = dose: 200.0 mg/kg/injection, schedule: Q01DX009 (ip), vehicle: saline

In the case of `CC(C)Sc1nc2ccc(NC(=O)/C=C/C(=O)O)cc2s1`, the T/C [1] is reported as 100 % of control, the T/C [2] is reported as 104 % of control and the T/C (dose: 200.0 mg/kg/injection, schedule: Q01DX009 (ip), vehicle: Klucel (hydroxypropylcellulose) (HPC)) is reported as 101 % of control.
In the case of `COCCOP(=O)(N1CC1)N1CC1`, the T/C (dose: 6.25 mg/kg/injection, schedule: Q04DX003 (ip), vehicle: saline) is reported as 118 % of control, the T/C [3] is reported as 181 % of control and the T/C (dose: 25.0 mg/kg/injection, schedule: Q04DX003 (ip), vehicle: saline) is reported as 177 % of control. The T/C (dose: 33.0 mg/kg/injection, schedule: Q04DX003 (ip), vehicle: saline) was 150 % of control, the T/C [4] was 122 % of control and the T/C (dose: 50.0 mg/kg/injection, schedule: Q04DX003 (ip), vehicle: saline) was 175 % of control and 190 % of control. The T/C (dose: 75.0 mg/kg/injection, schedule: Q04DX003 (ip), vehicle: saline) was 120 % of control.
With `C1=Cc2cc(CN3CCOCC3)ccc2Nc2ccccc21` the T/C (dose: 60.0 mg/kg/injection, schedule: Q01DX005 (ip), vehicle: Klucel (hydroxypropylcellulose) (HPC)) was 99 % of control and the T/C (dose: 120.0 mg/kg/injection, schedule: Q01DX005 (ip), vehicle: Klucel (hydroxypropylcellulose) (HPC)) was 89 % of control.
In the case of `C/C(NN(C)C)=C(\C#N)C(=O)/C=C/c1cccs1`, the T/C [5] is reported as 105 % of control, the T/C [6] is reported as 98 % of control and the T/C [7] is reported as 96 % of control.
`S=C(N/N=C/c1ccccn1)N/N=C/c1ccccn1` was tested, and the T/C (dose: 6.25 mg/kg/injection, schedule: Q01DX009 (ip), vehicle: saline) was 117 % of control, the T/C (dose: 12.5 mg/kg/injection, schedule: Q01DX009 (ip), vehicle: saline) was 103 % of control and 105 % of control and the T/C (dose: 25.0 mg/kg/injection, schedule: Q01DX009 (ip), vehicle: distilled water + Tween-80) was 97 % of control. The T/C [3] was 109 % of control and 120 % of control.
With `COC(=O)c1ccccc1NC(CCN1CCN(c2ccccc2)CC1)=NC(C)(C)C` the T/C [1] was 100 % of control and the T/C [2] was 102 % of control.
In the case of `CCN(CC)CCOC(=O)Cc1cccc2c(=O)cc(-c3cccs3)oc12`, the T/C (dose: 25.0 mg/kg/injection, schedule: Q01DX005 (ip), vehicle: Klucel (hydroxypropylcellulose) (HPC)) is reported as 106 % of control, the T/C [8] is reported as 104 % of control and 117 % of control and the T/C [9] is reported as 109 % of control. For the same molecule, the T/C [10] was 161 % of control.
`O=C(CNc1ccc(Cl)cc1)c1ccc(Cl)cc1` was tested, and the T/C [8] was 107 % of control, the T/C [9] was 99 % of control and the T/C [10] was 90 % of control.
In the case of `Clc1cccc(Cl)c1C(Nc1ncccn1)Nc1ncccn1`, the T/C [8] is reported as 106 % of control, the T/C [9] is reported as 100 % of control and the T/C [10] is reported as 97 % of control.
`CCC(c1ccc(O)cc1)C(CC)c1ccc(OCC(N)=O)cc1` (stereo not given) was tested, and the T/C [5] was 92 % of control, the T/C [6] was 94 % of control and the T/C [7] was 94 % of control.
`CC1=C(C(=O)Nc2ccccc2)C(c2ccc(Cl)cc2Cl)C(C(=O)Nc2ccccc2)=C(C)N1` was tested, and the T/C [11] was 99 % of control, the T/C (dose: 200.0 mg/kg/injection, schedule: Q04DX002 (ip), vehicle: saline with Tween-80) was 101 % of control and the T/C (dose: 400.0 mg/kg/injection, schedule: Q04DX002 (ip), vehicle: saline with Tween-80) was 92 % of control.
`CC(=O)n1[nH]c(=O)ccc1=O` was tested, and the T/C (dose: 100.0 mg/kg/injection, schedule: Q04DX003 (ip), vehicle: saline) was 115 % of control, the T/C (dose: 200.0 mg/kg/injection, schedule: Q04DX003 (ip), vehicle: saline) was 107 % of control and the T/C (dose: 400.0 mg/kg/injection, schedule: Q04DX003 (ip), vehicle: saline) was 115 % of control.
`COc1ccc2ccccc2c1/C=N/N1CCCCC1` was tested, and the T/C (dose: 100.0 mg/kg/injection, schedule: Q01DX009 (ip), vehicle: saline with Tween-80) was 100 % of control, the T/C (dose: 200.0 mg/kg/injection, schedule: Q01DX009 (ip), vehicle: saline with Tween-80) was 104 % of control and the T/C (dose: 400.0 mg/kg/injection, schedule: Q01DX009 (ip), vehicle: saline with Tween-80) was 95 % of control.
In the case of `COc1ccc(C(O)c2ncccc2C)cc1OC` (stereo not given), the T/C (dose: 12.5 mg/kg/injection, schedule: Q01DX009 (ip), vehicle: water) is reported as 102 % of control, the T/C (dose: 25.0 mg/kg/injection, schedule: Q01DX009 (ip), vehicle: water) is reported as 94 % of control and the T/C (dose: 50.0 mg/kg/injection, schedule: Q01DX009 (ip), vehicle: water) is reported as 99 % of control. The T/C (dose: 100.0 mg/kg/injection, schedule: Q01DX009 (ip), vehicle: water) was 100 % of control and the T/C (dose: 200.0 mg/kg/injection, schedule: Q01DX009 (ip), vehicle: water) was 101 % of control.
`CSCCC(NC=O)C(=O)NC(CC(C)C)C(=O)NC(Cc1ccccc1)C(=O)O` (stereo not given) was tested, and the T/C (dose: 12.5 mg/kg/injection, schedule: Q01DX005 (ip), vehicle: distilled water + Tween-80) was 98 % of control, the T/C (dose: 25.0 mg/kg/injection, schedule: Q01DX005 (ip), vehicle: distilled water + Tween-80) was 98 % of control and the T/C (dose: 50.0 mg/kg/injection, schedule: Q01DX005 (ip), vehicle: distilled water + Tween-80) was 100 % of control. The T/C (dose: 100.0 mg/kg/injection, schedule: Q01DX005 (ip), vehicle: distilled water + Tween-80) was 89 % of control and the T/C (dose: 200.0 mg/kg/injection, schedule: Q01DX005 (ip), vehicle: distilled water + Tween-80) was 97 % of control.
`C#CC(C)ON1C(=O)c2ccccc2C1=O` (stereo not given) was tested, and the T/C (dose: 100.0 mg/kg/injection, schedule: Q01DX001 (ip), vehicle: other) was 109 % of control, the T/C (dose: 200.0 mg/kg/injection, schedule: Q01DX001 (ip), vehicle: other) was 100 % of control and the T/C (dose: 400.0 mg/kg/injection, schedule: Q01DX001 (ip), vehicle: other) was 100 % of control.
`Cc1ccc(S(=O)(=O)Nc2nnc(NS(=O)(=O)c3ccc(C)cc3)nn2)cc1` was tested, and the T/C (dose: 12.5 mg/kg/injection, schedule: Q01DX009 (ip), vehicle: other) was 96 % of control, the T/C (dose: 25.0 mg/kg/injection, schedule: Q01DX009 (ip), vehicle: other) was 96 % of control and the T/C (dose: 50.0 mg/kg/injection, schedule: Q01DX009 (ip), vehicle: other) was 96 % of control. The T/C (dose: 100.0 mg/kg/injection, schedule: Q01DX009 (ip), vehicle: other) was 91 % of control and the T/C (dose: 200.0 mg/kg/injection, schedule: Q01DX009 (ip), vehicle: other) was 94 % of control.
For `COC1/C=C\C=C(/C)C(=O)NC2=CC(=O)C(NCCCl)=C(CC(C)CC(OC)C(O)C(C)/C=C(/C)C1OC(N)=O)C2=O` (stereo not given), the T/C (dose: 1.5 mg/kg/injection, schedule: Q01DX009 (ip), vehicle: DMSO) was 107 % of control, the T/C (dose: 3.0 mg/kg/injection, schedule: Q01DX009 (ip), vehicle: DMSO) was 108 % of control and the T/C (dose: 3.12 mg/kg/injection, schedule: Q04DX002 (ip), vehicle: saline with Tween-80) was 115 % of control. For the same molecule, the T/C (dose: 5.0 mg/kg/injection, schedule: Q04DX002 (ip), vehicle: saline with Tween-80) was 111 % of control, the T/C (dose: 6.0 mg/kg/injection, schedule: Q01DX009 (ip), vehicle: DMSO) was 111 % of control and the T/C (dose: 6.25 mg/kg/injection, schedule: Q04DX002 (ip), vehicle: saline with Tween-80) was 123 % of control. The T/C (dose: 12.0 mg/kg/injection, schedule: Q01DX009 (ip), vehicle: DMSO) was 117 % of control, the T/C (dose: 12.5 mg/kg/injection, schedule: Q04DX002 (ip), vehicle: saline with Tween-80) was 119 % of control and the T/C (dose: 20.0 mg/kg/injection, schedule: Q04DX002 (ip), vehicle: saline with Tween-80) was 122 % of control.
With `CCOC(=O)C(Cc1c[nH]c2ccccc12)NCCN` (stereo not given) the T/C [4] was 99 % of control, the T/C [12] was 108 % of control and the T/C [13] was 86 % of control.
`N#C/C(=C\c1ccc(Cl)cc1)C(=O)N/N=C/c1ccc(Cl)cc1` was tested, and the T/C [4] was 97 % of control, the T/C [12] was 97 % of control and the T/C [13] was 101 % of control.
In the case of `N=C(N)c1ccc2oc(/C=C/c3ccc(-c4cc5cc(C(=N)N)ccc5o4)cc3)cc2c1`, the T/C [8] is reported as 98 % of control, the T/C [9] is reported as 104 % of control and the T/C [10] is reported as 104 % of control.
In the case of `CC#CC#C/C=C1/C=CC2(CCCCO2)O1` (stereo not given), the T/C (dose: 12.5 mg/kg/injection, schedule: Q01DX009 (ip), vehicle: Klucel (hydroxypropylcellulose) (HPC)) is reported as 100 % of control, the T/C (dose: 25.0 mg/kg/injection, schedule: Q01DX009 (ip), vehicle: Klucel (hydroxypropylcellulose) (HPC)) is reported as 101 % of control and the T/C [1] is reported as 107 % of control. For the same molecule, the T/C [2] was 104 % of control.
For `CC1CCC(C(C)C)C(N)C1` (stereo not given), the T/C (dose: 25.0 mg/kg/injection, schedule: Q04DX002 (ip), vehicle: suspension in saline) was 100 % of control, the T/C (dose: 50.0 mg/kg/injection, schedule: Q04DX002 (ip), vehicle: suspension in saline) was 93 % of control and the T/C [11] was 89 % of control. The T/C (dose: 100.0 mg/kg/injection, schedule: Q04DX002 (ip), vehicle: suspension in saline) was 102 % of control.
With `COc1ccc(C2CC(C)(N3CCCC3)Oc3cc4c(cc32)OCO4)cc1` (stereo not given) the T/C [5] was 101 % of control, the T/C [6] was 92 % of control and the T/C [7] was 98 % of control.
